In patent US9422309B2, “3-O-heteroaryl-ingenol” (LEO LABORATORIES LIMITED, priority 2012, dated 2016):

Columns and labels:
Type in all cases: cell-based
[1] = test system: PMN's (polymorphonuclear leukocytes); assay: Neutrophil oxidative burst; conditions: Leukocyte, 40 min; 40 min incubation at rt; normalised to 5×10^−7 M PEP0005; read-out: Neutrophil oxidative burst Rel EC50 range
Experimental: PMN's (polymorphonuclear leukocytes) are isolated and purified from fresh buffy coats by sequential sedimentation, density centrifugation and lysis of contaminating erythrocytes. In brief, buffy coats are incubated with 2% methocel for 30-45 min to differentially sediment red blood cells. The leukocyte-rich supernatant is transferred to lymphoprep tubes to remove mononuclear cells by density centrifugation (400×g, 30 min). The pellet is resuspended and any remaining erythrocytes lysed using 0.2% NaCl for 30 sec before restoring isotonicity by the addition of 1.2% NaCl. This step is repeated until the cell pellet appears relatively free of red blood cells. Cells are resuspended in DPBS (Dulbecco's Phosphate Buffered Saline) (w.o. Ca^2+, Mg^2+) and the concentration adjusted to 1.4×10^6 cells/ml in HBSS (Hanks Balanced Salt solution) (w Ca^2+, Mg^2+) containing 0.1% BSA (Bovine Serum Albumin) and 5 mM glucose just prior to assay initiation. Titrated reference and test compounds are pre-mixed with HE (Hydroethidine) (10 μM final assay concentration) before addition to 96-well plates containing 2.5×10^5 cells. Following 40 min incubation at rt, changes in the respiratory burst is estimated by measuring fluorescence at 579 nm (excitation: 485 nm) using an Envision plate reader.
Test compound titration curves are fitted to a four-parameter sigmoidal curve after normalizing the effect of the test compound to the effect of the positive control (5×10^−7 M PEP0005). Rel EC50 denotes the concentration of test compound producing an effect that is midway between the fitted top and bottom. Abs EC50 is the concentration of test compound that provokes a response corresponding to 50% of the maximal effect associated with the positive control (5×10^−7 M PEP0005).

[2] = test system: Primary human epidermal keratinocytes, HeKa; assay: HeKa cytokine release (IL-8); conditions: 6 h at 37° C., normalised to 1.5×10^−7 M PEP0005, read-out: HeKa cytokine release (IL-8) Rel EC50 range
Experimental: Primary human epidermal keratinocytes, HeKa, are seeded (10.000 cells/well) in 96-well plates the day before the assay. Test compounds are diluted in DMSO (dimethyl sulfoxide) and further diluted in assay medium and pipetted into wells of 96 well-plates containing HeKa cells. The plates are incubated for 6 h at 37° C. in humidified air with 5% CO2. Plates are centrifuged briefly to spin down cells at 4° C., the supernatant is removed and analysed by Meso Scale Discovery (MSD) 4-spot cytokine assay (Pro-inflammatory II Ultra Sensitive kit, MSD, MD, USA). The MSD assay employs a sandwich immunoassay format where capture antibodies are coated in a patterned array on the bottom of the wells of a 4-Spot-Multi-MSD plate. Standard samples are incubated in the MULTI-SPOT plates as well, and the cytokine (IL-8) binds to its corresponding capture antibody spot. The cytokine level is quantitated on a SECTOR™ Imager using a cytokine-specific Detection Antibody labelled with MSD SULFO-TAG™ reagent.
Test compound titration curves are fitted to a four-parameter sigmoidal curve after normalizing the effect of the test compound to the effect of the positive control (1.5×10^−7 M PEP0005). Rel EC50 denotes the concentration of test compound producing an effect that is midway between the fitted top and bottom.

HeLa cells = assay: Necrosis assay; conditions: Homo sapiens, 0.5 h, 30 min at 37° C., PrestoBlue, normalised to 4 10^−4 M PEP0005/ingenol mebutate, read-out: HeLa necrosis EC50 range
Experimental: HeLa cells (ATCC CCL-002) were grown in minimal essential medium (Invitrogen catalog no. 42360) containing 10% fetal bovine serum, 100 IU/ml penicillin and 100 μg/ml streptomycin. 4,000-6,000 cells were seeded into 96-well black ViewPlates-plates, clear bottom, (Perkin Elmer) in 100 μl medium and incubated overnight. Compounds were dissolved and pre-diluted in DMSO in 96-well polypropylene plates (Greiner) in a concentration range of 15 μM to 600 μM. At the time of the experiment cell plates were placed on heating blocks at 37° C., medium was removed and 40 μl fresh, pre-warmed medium was added per well. Cells were incubated for 15 min before addition of compounds. In parallel, 3 μl of compounds were diluted with 197 μl growth medium on a Tecan freedom-EVO pipetting station using 250 μl/s pipetting speed, in order to ensure effective mixing of the highly concentrated compound solutions with the aqueous phase.
These pre-dilution plates were then equilibrated on heating blocks at 37° C. for 10 min. 80 μl pre-diluted compound were transferred manually to the corresponding wells containing HeLa cells yielding compound concentrations of 10 μM to 400 μM. Control conditions were 1% DMSO in growth medium (100% viability) and 400 μM ingenol mebutate in growth medium (0% viability). Plates were incubated on the heating blocks at 37° C. for 30 min. At the end of the incubation 10 μl PrestoBlue reagent (Invitrogen) were added to each well, plates were sealed with black seal, followed by incubation at 37° C. for 10 min with gentle shaking (150 rpm). Subsequently, plates were placed at room temperature for 20-30 min. Plates were read immediately after on an Envision Fluorescence reader (Perkin Elmer) with excitation at 535 nm and emission at 630 nm. Test compound titration curves were fitted to a four-parameter sigmoidal curve after normalizing the effect of the test compound to the effect of the positive control (4 10^−4 M PEP0005/ingenol mebutate). Abs EC50 denotes the concentration of test compound producing 50% effect.

SMILES	EC50 [1]	EC50 [2]	EC50 (HeLa cells)
CC1=C[C@]23C(=O)[C@@H](C=C(CO)[C@@H](O)[C@]2(O)[C@H]1Oc1ncccc1C(F)(F)F)[C@H]1[C@@H](C[C@H]3C)C1(C)C [Compound 118, 3-O-(3-(Trifluoromethyl)-2-pyridyl)-ingenol]	< 20 nM	20 to 100 nM	< 150000 nM
CC1=C[C@]23C(=O)[C@@H](C=C(CO)[C@@H](O)[C@]2(O)[C@H]1Oc1ncnc(Cl)c1C)[C@H]1[C@@H](C[C@H]3C)C1(C)C [Compound 101, 3-O-(6-Chloro-5-methyl-pyrimidin-4-yl)-ingenol]	20 to 100 nM	< 20 nM	< 150000 nM
CC1=C[C@]23C(=O)[C@@H](C=C(CO)[C@@H](O)[C@]2(O)[C@H]1Oc1nccc(C(F)(F)F)n1)[C@H]1[C@@H](C[C@H]3C)C1(C)C [Compound 114, 3-O-(4-(Trifluoromethyl)-pyrimidin-2-yl)-ingenol]	≥ 100 nM	≥ 100 nM	≥ 350000 nM
CC1=C[C@]23C(=O)[C@@H](C=C(CO)[C@@H](O)[C@]2(O)[C@H]1Oc1cc(Br)ccn1)[C@H]1[C@@H](C[C@H]3C)C1(C)C [Compound 111, 3-O-(4-Bromo-2-pyridyl)-ingenol]	20 to 100 nM	20 to 100 nM	150000 to 350000 nM
CC1=C[C@]23C(=O)[C@@H](C=C(CO)[C@@H](O)[C@]2(O)[C@H]1Oc1nccn1CCF)[C@H]1[C@@H](C[C@H]3C)C1(C)C [Compound 122, 3-O-(1-(2-Fluoroethyl)imidazol-2-yl)-ingenol]	≥ 100 nM	≥ 100 nM	
CC1=C[C@]23C(=O)[C@@H](C=C(CO)[C@@H](O)[C@]2(O)[C@H]1Oc1ccc(C(F)(F)F)cn1)[C@H]1[C@@H](C[C@H]3C)C1(C)C [Compound 103, 3-O-(5-(Trifluoromethyl)-2-pyridyl)-ingenol]		20 to 100 nM	150000 to 350000 nM
COc1cccnc1O[C@H]1C(C)=C[C@]23C(=O)[C@@H](C=C(CO)[C@@H](O)[C@]12O)[C@H]1[C@@H](C[C@H]3C)C1(C)C [Compound 129, 3-O-(3-Methoxy-pyridin-2-yl)-ingenol]	≥ 100 nM	≥ 100 nM	≥ 350000 nM
CC1=C[C@]23C(=O)[C@@H](C=C(CO)[C@@H](O)[C@]2(O)[C@H]1Oc1noc2ccccc12)[C@H]1[C@@H](C[C@H]3C)C1(C)C [Compound 102, 3-O-(1,2-Benzoxazol-3-yl)-ingenol]	< 20 nM	< 20 nM	150000 to 350000 nM
CC1=C[C@]23C(=O)[C@@H](C=C(CO)[C@@H](O)[C@]2(O)[C@H]1Oc1cc(C(F)(F)F)ccn1)[C@H]1[C@@H](C[C@H]3C)C1(C)C [Compound 113, 3-O-(4-(Trifluoromethyl)-2-pyridyl)-ingenol]	20 to 100 nM	20 to 100 nM	150000 to 350000 nM
CC1=C[C@]23C(=O)[C@@H](C=C(CO)[C@@H](O)[C@]2(O)[C@H]1Oc1cccc(C(F)(F)F)n1)[C@H]1[C@@H](C[C@H]3C)C1(C)C [Compound 117, 3-O-(6-(Trifluoromethyl)-2-pyridyl)-ingenol]	≥ 100 nM	≥ 100 nM	≥ 350000 nM
CC1=C[C@]23C(=O)[C@@H](C=C(CO)[C@@H](O)[C@]2(O)[C@H]1Oc1ncc(C(F)(F)F)cn1)[C@H]1[C@@H](C[C@H]3C)C1(C)C [Compound 110, 3-O-(5-(Trifluoromethyl)-pyrimidin-2-yl)-ingenol]	≥ 100 nM	≥ 100 nM	≥ 350000 nM
CC1=C[C@]23C(=O)[C@@H](C=C(CO)[C@@H](O)[C@]2(O)[C@H]1Oc1noc(C(C)C)n1)[C@H]1[C@@H](C[C@H]3C)C1(C)C [Compound 133, 3-O-(5-Isopropyl-1,2,4-oxadiazol-3-yl)-ingenol]	20 to 100 nM	20 to 100 nM	≥ 350000 nM
COc1ccc2c(O[C@H]3C(C)=C[C@]45C(=O)[C@@H](C=C(CO)[C@@H](O)[C@]34O)[C@H]3[C@@H](C[C@H]5C)C3(C)C)noc2c1 [Compound 132, 3-O-(6-Methoxy-1,2-benzoxazol-3-yl)-ingenol]	< 20 nM	< 20 nM	≥ 350000 nM
CC1=C[C@]23C(=O)[C@@H](C=C(CO)[C@@H](O)[C@]2(O)[C@H]1Oc1nccc2ccsc12)[C@H]1[C@@H](C[C@H]3C)C1(C)C [Compound 123, 3-O-(Thieno[2,3-c]pyridine-7-yl)-ingenol]	20 to 100 nM	< 20 nM	≥ 350000 nM
CC1=C[C@]23C(=O)[C@@H](C=C(CO)[C@@H](O)[C@]2(O)[C@H]1Oc1nccc2sccc12)[C@H]1[C@@H](C[C@H]3C)C1(C)C [Compound 127, 3-O-(Thieno[3,2-c]pyridine-4-yl)-ingenol]	20 to 100 nM	20 to 100 nM	150000 to 350000 nM
CC1=C[C@]23C(=O)[C@@H](C=C(CO)[C@@H](O)[C@]2(O)[C@H]1Oc1ncccc1C#N)[C@H]1[C@@H](C[C@H]3C)C1(C)C [Compound 116, 3-O-(3-Cyano-2-pyridyl)-ingenol]	20 to 100 nM	≥ 100 nM	≥ 350000 nM
CC1=C[C@]23C(=O)[C@@H](C=C(CO)[C@@H](O)[C@]2(O)[C@H]1Oc1noc2cccc(F)c12)[C@H]1[C@@H](C[C@H]3C)C1(C)C [Compound 128, 3-O-(4-Fluoro-1,2-benzoxazol-3-yl)-ingenol]	< 20 nM	< 20 nM	150000 to 350000 nM
CC1=C[C@]23C(=O)[C@@H](C=C(CO)[C@@H](O)[C@]2(O)[C@H]1Oc1nccc2occc12)[C@H]1[C@@H](C[C@H]3C)C1(C)C [Compound 126, 3-O-(Furo[3,2-c]pyridine-4-yl)-ingenol]	20 to 100 nM		150000 to 350000 nM
CC1=C[C@]23C(=O)[C@@H](C=C(CO)[C@@H](O)[C@]2(O)[C@H]1Oc1nccn1CC(F)F)[C@H]1[C@@H](C[C@H]3C)C1(C)C [Compound 121, 3-O-(1-(2,2-Difluoroethyl)imidazol-2-yl)-ingenol]	20 to 100 nM	≥ 100 nM	
C=CCn1ccnc1O[C@H]1C(C)=C[C@]23C(=O)[C@@H](C=C(CO)[C@@H](O)[C@]12O)[C@H]1[C@@H](C[C@H]3C)C1(C)C [Compound 109, 3-O-(1-Allylimidazol-2-yl)-ingenol]	20 to 100 nM		≥ 350000 nM
